Assay results published in patent US10344025B2, “GLS1 inhibitors for treating disease” (Board of Regents, The University of Texas System, priority 2014, dated 2019).

How the values were obtained:
[1] = molecular target: purified recombinant human GAC (GLS1) (Homo sapiens (Human), UniProt O94925); test: GLS1 Enzymatic Activity Assay (dual-coupled enzymatic assay, resorufin/Amplex UltraRed readout); assay type: biochemical;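 further: glutamate from GAC coupled via glutamate oxidase and peroxidase to resorufin, read as fluorescence (ex 530, em 590 nm) kinetically or at 20 min, four-parameter logistic IC50 fit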
A549 cells = test: Proliferation Assay (A549 viability, Cell Titer Fluor, 72 hours); assay type: cell-based; settings: Homo sapiens, A549, 72 h
Summary of the method: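 A549 cells seeded at 1000 cells/well, rested 24 h, then exposed to compound in 0.5% DMSO for 72 h at 37 °C. Viability read by Cell Titer Fluor fluorescence; IC50 from four-parameter logistic fit.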

purified recombinant human GAC (GLS1), sequence (O94925 other isoform, or with tags, fused parts or gaps): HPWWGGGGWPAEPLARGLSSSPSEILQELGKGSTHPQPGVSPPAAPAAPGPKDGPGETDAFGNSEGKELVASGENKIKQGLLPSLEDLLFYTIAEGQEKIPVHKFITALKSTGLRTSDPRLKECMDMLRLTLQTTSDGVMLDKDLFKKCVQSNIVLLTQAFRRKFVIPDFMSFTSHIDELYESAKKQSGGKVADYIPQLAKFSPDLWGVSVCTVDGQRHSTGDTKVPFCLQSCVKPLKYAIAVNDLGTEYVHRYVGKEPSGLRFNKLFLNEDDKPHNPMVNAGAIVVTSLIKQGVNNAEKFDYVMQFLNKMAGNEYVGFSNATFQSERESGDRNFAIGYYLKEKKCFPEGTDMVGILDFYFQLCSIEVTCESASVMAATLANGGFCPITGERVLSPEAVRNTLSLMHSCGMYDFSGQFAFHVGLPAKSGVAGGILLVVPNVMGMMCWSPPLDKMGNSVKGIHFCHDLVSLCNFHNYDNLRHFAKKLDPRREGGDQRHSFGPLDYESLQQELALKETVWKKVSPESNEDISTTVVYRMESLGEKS

Compound O=C(NCc1cncc(C(F)(F)F)c1)c1cn(CC(F)CCc2nnc(C(=O)NCc3cc(C(F)(F)F)ccn3)s2)nn1 (stereo not shown) [Example 485, 5-{3-fluoro-4-[4-({[5-(trifluoromethyl)pyridin-3-yl]methyl}carbamoyl)-1H-1,2,3-triazol-1-yl]butyl}-N-{[4-(trifluoromethyl)pyridin-2-yl]methyl}-1,3,4-thiadiazole-2-carboxamide] has an IC50 [1] of under 100 nM and an EC50 (A549 cells) of under 100 nM.

O=C(Cc1cccc(OC(F)(F)F)c1)Nc1cn(CC(F)CCn2cc(C(=O)NCc3ccc(C(F)(F)F)cn3)nn2)nn1 (stereo not shown) [Example 486, 1-[3-fluoro-4-(4-{2-[3-(trifluoromethoxy)phenyl]acetamido}-1H-1,2,3-triazol-1-yl)butyl]-N-{[5-(trifluoromethyl)pyridin-2-yl]methyl}-1H-1,2,3-triazole-4-carboxamide] gave an IC50 [1] of under 100 nM and an EC50 (A549 cells) of under 100 nM.

For Cc1ccc(CC(=O)Nc2cn(CCCCn3cc(C(=O)NCC4CC4)nn3)nn2)cn1 [Example 319, N-(cyclopropylmethyl)-1-(4-{4-[2-(6-methylpyridin-3-yl)acetamido]-1H-1,2,3-triazol-1-yl}butyl)-1H-1,2,3-triazole-4-carboxamide], the IC50 [1] was 500 to 5000 nM and the EC50 (A549 cells) was over 5000 nM.

O=C(Cc1ccccn1)Nc1nnc(CCCCn2cc(C(=O)NCc3cc(OC(F)(F)F)ccc3F)nn2)s1 [Example 554, N-{[2-fluoro-5-(trifluoromethoxy)phenyl]methyl}-1-(4-{5-[2-(pyridin-2-yl)acetamido]-1,3,4-thiadiazol-2-yl}butyl)-1H-1,2,3-triazole-4-carboxamide] was tested, and the IC50 [1] was under 100 nM and the EC50 (A549 cells) was under 100 nM.

Work on CC(C)(C)OC(=O)N1CC(CNC(=O)c2cn(CCCCn3cc(C(=O)NCc4cccc(OC(F)(F)F)c4)nn3)nn2)C1 [Example 79, tert-butyl 3-{[(1-{4-[4-({[3-(trifluoromethoxy)phenyl]methyl}carbamoyl)-1H-1,2,3-triazol-1-yl]butyl}-1H-1,2,3-triazol-4-yl)formamido]methyl}azetidine-1-carboxylate] yielded an IC50 [1] of under 100 nM and an EC50 (A549 cells) of under 100 nM.

For Cc1ccc(CNC(=O)c2cn(CCC(F)Cn3cc(NC(=O)Cc4cc(OC(F)(F)F)ccc4F)nn3)nn2)cn1 (stereo not shown) [Example 376, 1-[3-fluoro-4-(4-{2-[2-fluoro-5-(trifluoromethoxy)phenyl]acetamido}-1H-1,2,3-triazol-1-yl)butyl]-N-[(6-methylpyridin-3-yl)methyl]-1H-1,2,3-triazole-4-carboxamide], the IC50 [1] was under 100 nM and the EC50 (A549 cells) was under 100 nM.

With CNC(=O)c1cn(CC(F)CCc2nnc(C(=O)NCc3ccccc3)s2)nn1 (stereo not shown) [Example 563, N-benzyl-5-{3-fluoro-4-[4-(methylcarbamoyl)-1H-1,2,3-triazol-1-yl]butyl}-1,3,4-thiadiazole-2-carboxamide] the IC50 [1] was 500 to 5000 nM and the EC50 (A549 cells) was 500 to 5000 nM.

In the case of O=C(Cc1ccccc1)Nc1nnc(CCCCn2cc(C(=O)NCc3ccccc3)nn2)s1 [Example 15, N-benzyl-1-{4-[5-(2-phenylacetamido)-1,3,4-thiadiazol-2-yl]butyl}-1H-1,2,3-triazole-4-carboxamide], the IC50 [1] is reported as under 100 nM and the EC50 (A549 cells) is reported as 100 to 500 nM.

In the case of C[C@@H](NC(=O)c1cn(CCCCn2cc(C(=O)NCc3cc(C(F)(F)F)ccn3)nn2)nn1)c1ccccc1 [Example 98, 1-[4-(4-{[(1R)-1-phenylethyl]carbamoyl}-1H-1,2,3-triazol-1-yl)butyl]-N-{[4-(trifluoromethyl)pyridin-2-yl]methyl}-1H-1,2,3-triazole-4-carboxamide], the IC50 [1] is reported as 500 to 5000 nM and the EC50 (A549 cells) is reported as 500 to 5000 nM.

CNC(=O)c1cn(CCCCc2ccc(NC(=O)Cc3cccc(S(C)(=O)=O)c3)nn2)nn1 [Example 543, 1-(4-{6-[2-(3-methanesulfonylphenyl)acetamido]pyridazin-3-yl}butyl)-N-methyl-1H-1,2,3-triazole-4-carboxamide] showed an IC50 [1] of under 100 nM and an EC50 (A549 cells) of 500 to 5000 nM.

Cc1ccc(CC(=O)Nc2cn(CC(F)CCn3cc(C(=O)NCc4cccc(OC(F)(F)F)c4)nn3)nn2)cn1 (stereo not shown) [Example 342, 1-(3-fluoro-4-{4-[2-(6-methylpyridin-3-yl)acetamido]-1H-1,2,3-triazol-1-yl}butyl)-N-{[3-(trifluoromethoxy)phenyl]methyl}-1H-1,2,3-triazole-4-carboxamide] gave an IC50 [1] of under 100 nM and an EC50 (A549 cells) of under 100 nM.

Cc1ccc(CNC(=O)c2cn(CCC(F)Cn3cc(NC(=O)Cc4ccccn4)nn3)nn2)cn1 (stereo not shown) [Example 364, 1-(3-fluoro-4-{4-[2-(pyridin-2-yl)acetamido]-1H-1,2,3-triazol-1-yl}butyl)-N-[(6-methylpyridin-3-yl)methyl]-1H-1,2,3-triazole-4-carboxamide] showed an IC50 [1] of 100 to 500 nM and an EC50 (A549 cells) of 500 to 5000 nM.

CNC(=O)c1cn(CC(F)CCc2ccc(NC(=O)CN3CCN(c4cccc(OC(F)(F)F)c4)CC3=O)nn2)nn1 (stereo not shown) [Example 241, 1-(2-fluoro-4-(6-(2-(2-oxo-4-(3-(trifluoromethoxy)phenyl)piperazin-1-yl)acetamido)pyridazin-3-yl)butyl)-N-methyl-1H-1,2,3-triazole-4-carboxamide] gave an IC50 [1] of under 100 nM and an EC50 (A549 cells) of under 100 nM.

With O=C(NCc1cc(C(F)(F)F)ccn1)c1cn(CCCCn2cc(C(=O)NC[C@H]3CC4CCC3O4)nn2)nn1 (stereo partly drawn) [Example 102, 1-[4-(4-{[(2R)-7-oxabicyclo[2.2.1]heptan-2-ylmethyl]carbamoyl}-1H-1,2,3-triazol-1-yl)butyl]-N-{[4-(trifluoromethyl)pyridin-2-yl]methyl}-1H-1,2,3-triazole-4-carboxamide] the IC50 [1] was 500 to 5000 nM and the EC50 (A549 cells) was 500 to 5000 nM.

In the case of CNC(=O)c1cn(CCCCc2ccc(NC(=O)Cc3cnccn3)nn2)nn1 [Example 579, N-methyl-1-(4-(6-(2-(pyrazin-2-yl)acetamido)pyridazin-3-yl)butyl)-1H-1,2,3-triazole-4-carboxamide], the IC50 [1] is reported as 100 to 500 nM and the EC50 (A549 cells) is reported as 500 to 5000 nM.

O=C(Cc1cccnc1)Nc1cn(CCCCn2cc(C(=O)NCC3CCCCC3)nn2)nn1 [Example 284, N-(cyclohexylmethyl)-1-(4-{4-[2-(pyridin-3-yl)acetamido]-1H-1,2,3-triazol-1-yl}butyl)-1H-1,2,3-triazole-4-carboxamide] showed an IC50 [1] of 100 to 500 nM and an EC50 (A549 cells) of 500 to 5000 nM.

O=C(Cc1cccc(OC(F)(F)F)c1)Nc1cn(CCCCn2cc(C(=O)NCC3CCCCC3)nn2)nn1 [Example 286, N-(cyclohexylmethyl)-1-[4-(4-{2-[3-(trifluoromethoxy)phenyl]acetamido}-1H-1,2,3-triazol-1-yl)butyl]-1H-1,2,3-triazole-4-carboxamide] showed an IC50 [1] of under 100 nM and an EC50 (A549 cells) of 100 to 500 nM.

O=C(Cc1ccccn1)Nc1nnc(CCC(F)Cn2cc(C(=O)NCc3cccc(OC(F)(F)F)c3)nn2)s1 (stereo not shown) [Example 513, 1-(2-fluoro-4-{5-[2-(pyridin-2-yl)acetamido]-1,3,4-thiadiazol-2-yl}butyl)-N-{[3-(trifluoromethoxy)phenyl]methyl}-1H-1,2,3-triazole-4-carboxamide] was tested, and the IC50 [1] was under 100 nM and the EC50 (A549 cells) was under 100 nM.

In the case of O=C(CN1CC(F)(F)C1)Nc1cn(CCCCn2cc(C(=O)NCc3cccc(OC(F)(F)F)c3)nn2)nn1 [Example 330, 1-(4-{4-[2-(3,3-difluoroazetidin-1-yl)acetamido]-1H-1,2,3-triazol-1-yl}butyl)-N-{[3-(trifluoromethoxy)phenyl]methyl}-1H-1,2,3-triazole-4-carboxamide], the IC50 [1] is reported as under 100 nM and the EC50 (A549 cells) is reported as 100 to 500 nM.

O=C(Cc1cccc(OC(F)(F)F)c1)Nc1cn(CCCCn2cc(C(=O)NCc3cc(Cl)ccc3F)nn2)nn1 [Example 334, N-[(5-chloro-2-fluorophenyl)methyl]-1-[4-(4-{2-[3-(trifluoromethoxy)phenyl]acetamido}-1H-1,2,3-triazol-1-yl)butyl]-1H-1,2,3-triazole-4-carboxamide] was tested, and the IC50 [1] was under 100 nM and the EC50 (A549 cells) was under 100 nM.

O=C(NCc1cccc(OC(F)(F)F)c1)c1cn(CCC(F)Cn2cc(C(=O)N[C@H](CO)c3ccccc3)nn2)nn1 (stereo partly drawn) [Example 462, 1-{2-fluoro-4-[4-({[3-(trifluoromethoxy)phenyl]methyl}carbamoyl)-1H-1,2,3-triazol-1-yl]butyl}-N-[(1S)-2-hydroxy-1-phenylethyl]-1H-1,2,3-triazole-4-carboxamide] showed an IC50 [1] of under 100 nM and an EC50 (A549 cells) of 100 to 500 nM.

CC(C)(O)c1ccc(CNC(=O)c2cn(CCCCn3cc(C(=O)NCc4cccc(C5CC5)c4)nn3)nn2)cn1 [Example 123, N-[(3-cyclopropylphenyl)methyl]-1-{4-[4-({[6-(2-hydroxypropan-2-yl)pyridin-3-yl]methyl}carbamoyl)-1H-1,2,3-triazol-1-yl]butyl}-1H-1,2,3-triazole-4-carboxamide] was tested, and the IC50 [1] was under 100 nM and the EC50 (A549 cells) was 100 to 500 nM.

O=C(CN1CC(F)(F)C1)Nc1cn(CC(F)CCn2cc(C(=O)NCc3ncccc3F)nn2)nn1 (stereo not shown) [Example 410, 1-(4-{4-[2-(3,3-difluoroazetidin-1-yl)acetamido]-1H-1,2,3-triazol-1-yl}-3-fluorobutyl)-N-[(3-fluoropyridin-2-yl)methyl]-1H-1,2,3-triazole-4-carboxamide] gave an IC50 [1] of 500 to 5000 nM and an EC50 (A549 cells) of 500 to 5000 nM.

For CNC(=O)c1cn(CC(F)CCn2cc(NC(=O)Cc3cccc(OC(F)(F)F)c3)nn2)nn1 (stereo not shown) [Example 538, 1-[2-fluoro-4-(4-{2-[3-(trifluoromethoxy)phenyl]acetamido}-1H-1,2,3-triazol-1-yl)butyl]-N-methyl-1H-1,2,3-triazole-4-carboxamide], the IC50 [1] was under 100 nM and the EC50 (A549 cells) was 100 to 500 nM.

Cc1ccc(CC(=O)Nc2cn(CCCCn3cc(C(=O)NCC4CCCCC4)nn3)nn2)cn1 [Example 312, N-(cyclohexylmethyl)-1-(4-{4-[2-(6-methylpyridin-3-yl)acetamido]-1H-1,2,3-triazol-1-yl}butyl)-1H-1,2,3-triazole-4-carboxamide] showed an IC50 [1] of 100 to 500 nM and an EC50 (A549 cells) of 500 to 5000 nM.

Cc1ccc(CNC(=O)c2cn(CC(F)CCn3cc(NC(=O)Cc4cccc(OC(F)(F)F)c4)nn3)nn2)cn1 (stereo not shown) [Example 396, 1-[2-fluoro-4-(4-{2-[3-(trifluoromethoxy)phenyl]acetamido}-1H-1,2,3-triazol-1-yl)butyl]-N-[(6-methylpyridin-3-yl)methyl]-1H-1,2,3-triazole-4-carboxamide] was tested, and the IC50 [1] was under 100 nM and the EC50 (A549 cells) was under 100 nM.
